From patent US6737383B1, “Herbicidal oxadiazolidines” (priority 1999, dated 2004)

How the values were obtained:
wheat = experiment: Test B pre/postemergence wheat; type: in vivo, Triticum aestivum; conditions: for Plant response rating, Wheat: scale of 0 to 10 where 0 is no effect and 10 is complete control
Method in brief: (§1)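 Test chemicals in a non-phytotoxic solvent mixture with surfactant were sprayed preemergence onto planted seeds and postemergence onto plants 2 to 18 cm tall (1- to 4-leaf stage). After twelve to sixteen days in a greenhouse, injury was visually rated against untreated controls from 0 (no effect) to 10 (complete control).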

giant foxtail = experiment: Test B pre/postemergence giant foxtail; type: in vivo, Setaria faberii
Method in brief: as §1

crabgrass = experiment: Test B pre/postemergence crabgrass; type: in vivo, Digitaria sanguinalis
Method in brief: as §1

blackgrass = experiment: Test B pre/postemergence blackgrass; type: in vivo, Alopecurus myosuroides
Method in brief: as §1

morningglory = experiment: Test B pre/postemergence morningglory; type: in vivo, Ipomoea hederacea; conditions: for Plant response rating, Morningglory: scale of 0 to 10 where 0 is no effect and 10 is complete control
Method in brief: as §1

smallflower flatsedge = experiment: Test B flood test smallflower flatsedge; type: in vivo, Cyperus difformis
Method in brief: (§2)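 Flood test on plants grown to the 2-leaf stage; treated plants kept in greenhouse twelve to sixteen days, then visually rated against controls on a 0 (no effect) to 10 (complete control) scale.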

purple nutsedge = experiment: Test B pre/postemergence purple nutsedge; type: in vivo, Cyperus rotundus; conditions: for Plant response rating, Nutsedge: scale of 0 to 10 where 0 is no effect and 10 is complete control
Method in brief: as §1

surinam grass = experiment: Test B pre/postemergence surinam grass; type: in vivo, Brachiaria decumbens
Method in brief: as §1

velvetleaf = experiment: Test B pre/postemergence velvetleaf; type: in vivo, Abutilon theophrasti; conditions: for Plant response rating, Velvetleaf: scale of 0 to 10 where 0 is no effect and 10 is complete control
Method in brief: as §1

rice = experiment: Test B flood test rice; type: in vivo, Oryza sativa
Method in brief: as §2

wild oat = experiment: Test B pre/postemergence wild oat; type: in vivo, Avena fatua; conditions: for Plant response rating, Wild oats: scale of 0 to 10 where 0 is no effect and 10 is complete control
Method in brief: as §1

rape = experiment: Test B pre/postemergence rape; type: in vivo, Brassica napus; conditions: for Plant response rating, Rape: scale of 0 to 10 where 0 is no effect and 10 is complete control
Method in brief: as §1

corn = experiment: Test B pre/postemergence corn; type: in vivo, Zea mays
Method in brief: as §1

duck salad = experiment: Test B flood test duck salad; type: in vivo, Heteranthera limosa
Method in brief: as §2

soybean = experiment: Test B pre/postemergence soybean; type: in vivo, Glycine max; conditions: for Plant response rating, Soybean: scale of 0 to 10 where 0 is no effect and 10 is complete control
Method in brief: as §1

[1] = Postemergence, Rate 250 g/ha, scale 0 to 10
[2] = Preemergence, Rate 250 g/ha, scale 0 to 10, 0 is no effect, 10 is complete control
[3] = Preemergence, Rate 500 g/ha, scale 0 to 10, 0 is no effect, 10 is complete control
[4] = Rate 62 g/ha, Postemergence, scale 0 to 10 (0 no effect, 10 complete control)
[5] = Rate 125 g/ha, Postemergence, scale 0 to 10, 0 is no effect, 10 is complete control
[6] = Postemergence, Rate 500 g/ha, scale of 0 to 10 where 0 is no effect and 10 is complete control
[7] = Preemergence, Rate 62 g/ha, scale of 0 to 10 where 0 is no effect and 10 is complete control
[8] = Preemergence, Rate 125 g/ha, scale of 0 to 10 where 0 is no effect and 10 is complete control
[9] = Rate 62 g/ha, flood test species, Pre-emergence, visual evaluation after twelve to sixteen days
[10] = Rate 125 g/ha, under heading Pre-emergence, flood test species, visual evaluation after twelve to sixteen days
[11] = Rate 250 g/ha, Pre-emergence (flood test species), scale 0 to 10, 0 is no effect, 10 is complete control
[12] = Rate 500 g/ha, Pre-emergence, flood test species, scale 0 to 10 (0 no effect, 10 complete control)

In the case of COC(OC)C(C)n1c(=O)on(C(=O)N(c2ccc(F)cc2)C(C)C)c1=O (centres unmarked) [Compound 471], the “Wheat plant response rating” value (wheat; [1]) is reported as 0, the “Plant response rating, Wheat” value (wheat; Preemergence, Rate 62 g/ha) is reported as 0 and the “Plant response rating, Wheat” value (wheat; Preemergence, Rate 125 g/ha) is reported as 0. The “Wheat plant response rating” value (wheat; [2]) was 0, the “Wheat plant response rating” value (wheat; [3]) was 0 and the “Wheat plant response rating” value (wheat; [4]) was 0. The “Wheat plant response rating” value (wheat; [5]) was 0, the “Giant foxtail plant response rating” value (giant foxtail; [1]) was 7 and the “Giant foxtail plant response rating” value (giant foxtail; [6]) was 8. The “Plant response rating, Giant foxtail” value (giant foxtail; [7]) was 10, the “Plant response rating, Giant foxtail” value (giant foxtail; [8]) was 10 and the “Giant foxtail plant response rating” value (giant foxtail; [2]) was 10. For the same compound, the “Giant foxtail plant response rating” value (giant foxtail; [3]) was 10, the “Giant foxtail plant response rating” value (giant foxtail; [4]) was 0 and the “Giant foxtail plant response rating” value (giant foxtail; [5]) was 1. For the same compound, the “Crabgrass plant response rating” value (crabgrass; [1]) was 8, the “Crabgrass plant response rating” value (crabgrass; [6]) was 9 and the “Plant response rating, Crabgrass” value (crabgrass; [7]) was 9. The “Plant response rating, Crabgrass” value (crabgrass; [8]) was 10, the “Crabgrass plant response rating” value (crabgrass; [2]) was 10 and the “Crabgrass plant response rating” value (crabgrass; [3]) was 10. For the same compound, the “Crabgrass plant response rating” value (crabgrass; [4]) was 1, the “Crabgrass plant response rating” value (crabgrass; [5]) was 3 and the “Blackgrass plant response rating” value (blackgrass; [1]) was 3. The “Blackgrass plant response rating” value (blackgrass; [6]) was 7, the “Plant response rating, Blackgrass” value (blackgrass; [7]) was 9 and the “Plant response rating, Blackgrass” value (blackgrass; [8]) was 10. For the same compound, the “Blackgrass plant response rating” value (blackgrass; [2]) was 10, the “Blackgrass plant response rating” value (blackgrass; [3]) was 10 and the “Blackgrass plant response rating” value (blackgrass; [4]) was 0. For the same compound, the “Blackgrass plant response rating” value (blackgrass; [5]) was 2, the “Morningglory plant response rating” value (morningglory; [1]) was 4 and the “Plant response rating, Morningglory” value (morningglory; Preemergence, Rate 62 g/ha) was 0. The “Plant response rating, Morningglory” value (morningglory; Preemergence, Rate 125 g/ha) was 0, the “Morningglory plant response rating” value (morningglory; [2]) was 0 and the “Morningglory plant response rating” value (morningglory; [3]) was 0. The “Morningglory plant response rating” value (morningglory; [4]) was 3, the “Morningglory plant response rating” value (morningglory; [5]) was 3 and the “Plant response rating, S. Flatsedge (0 to 10 scale, 0 is no effect, 10 is complete control)” value (smallflower flatsedge; [9]) was 0. For the same compound, the “S. Flatsedge plant response rating (0 to 10 scale, 0 is no effect, 10 is complete control)” value (smallflower flatsedge; [10]) was 0, the “S. Flatsedge plant response rating” value (smallflower flatsedge; [11]) was 0 and the “S. Flatsedge plant response rating” value (smallflower flatsedge; [12]) was 0. The “Nutsedge plant response rating” value (purple nutsedge; [1]) was 0, the “Plant response rating, Nutsedge” value (purple nutsedge; Preemergence, Rate 62 g/ha) was 0 and the “Plant response rating, Nutsedge” value (purple nutsedge; Preemergence, Rate 125 g/ha) was 0. The “Nutsedge plant response rating” value (purple nutsedge; [2]) was 0, the “Nutsedge plant response rating” value (purple nutsedge; [3]) was 0 and the “Nutsedge plant response rating” value (purple nutsedge; [4]) was 0. The “Nutsedge plant response rating” value (purple nutsedge; [5]) was 0, the “B. signalgrass plant response rating” value (surinam grass; Postemergence, Rate 250 g/ha, scale 0 to 10, 0 no effect, 10 complete control) was 4 and the “B. signalgrass plant response rating” value (surinam grass; [6]) was 6. The “Plant response rating, B. signalgrass” value (surinam grass; [7]) was 6, the “Plant response rating, B. signalgrass” value (surinam grass; [8]) was 9 and the “B. signalgrass plant response rating” value (surinam grass; [2]) was 10. For the same compound, the “B. signalgrass plant response rating” value (surinam grass; [3]) was 10, the “B. signalgrass plant response rating” value (surinam grass; [4]) was 0 and the “B. signalgrass plant response rating” value (surinam grass; [5]) was 0. The “Velvetleaf plant response rating” value (velvetleaf; [1]) was 2, the “Plant response rating, Velvetleaf” value (velvetleaf; Preemergence, Rate 62 g/ha) was 2 and the “Plant response rating, Velvetleaf” value (velvetleaf; Preemergence, Rate 125 g/ha) was 3. For the same compound, the “Velvetleaf plant response rating” value (velvetleaf; [2]) was 3, the “Velvetleaf plant response rating” value (velvetleaf; [3]) was 6 and the “Velvetleaf plant response rating” value (velvetleaf; [4]) was 0. For the same compound, the “Velvetleaf plant response rating” value (velvetleaf; [5]) was 2, the “Plant response rating, Rice (0 to 10 scale, 0 is no effect, 10 is complete control)” value (rice; [9]) was 0 and the “Rice plant response rating (0 to 10 scale, 0 is no effect, 10 is complete control)” value (rice; [10]) was 0. The “Rice plant response rating” value (rice; [11]) was 0, the “Rice plant response rating” value (rice; [12]) was 0 and the “Wild oats plant response rating” value (wild oat; [1]) was 0. For the same compound, the “Plant response rating, Wild oats” value (wild oat; Preemergence, Rate 62 g/ha) was 2, the “Plant response rating, Wild oats” value (wild oat; Preemergence, Rate 125 g/ha) was 4 and the “Wild oats plant response rating” value (wild oat; [2]) was 7. For the same compound, the “Wild oats plant response rating” value (wild oat; [3]) was 7, the “Wild oats plant response rating” value (wild oat; [4]) was 0 and the “Wild oats plant response rating” value (wild oat; [5]) was 0. The “Rape plant response rating” value (rape; [1]) was 0, the “Plant response rating, Rape” value (rape; Preemergence, Rate 62 g/ha) was 2 and the “Plant response rating, Rape” value (rape; Preemergence, Rate 125 g/ha) was 2. The “Rape plant response rating” value (rape; [2]) was 7, the “Rape plant response rating” value (rape; [3]) was 10 and the “Rape plant response rating” value (rape; [4]) was 0. For the same compound, the “Rape plant response rating” value (rape; [5]) was 0, the “Corn plant response rating” value (corn; [1]) was 0 and the “Corn plant response rating” value (corn; [6]) was 0. For the same compound, the “Plant response rating, Corn” value (corn; [7]) was 0, the “Plant response rating, Corn” value (corn; [8]) was 0 and the “Corn plant response rating” value (corn; [2]) was 2. For the same compound, the “Corn plant response rating” value (corn; [3]) was 3, the “Corn plant response rating” value (corn; [4]) was 0 and the “Corn plant response rating” value (corn; [5]) was 0. For the same compound, the “Plant response rating, Ducksalad (0 to 10 scale, 0 is no effect, 10 is complete control)” value (duck salad; [9]) was 0, the “Ducksalad plant response rating (0 to 10 scale, 0 is no effect, 10 is complete control)” value (duck salad; [10]) was 0 and the “Ducksalad plant response rating” value (duck salad; [11]) was 0. The “Ducksalad plant response rating” value (duck salad; [12]) was 0, the “Soybean plant response rating” value (soybean; [1]) was 3 and the “Plant response rating, Soybean” value (soybean; Preemergence, Rate 62 g/ha) was 0. For the same compound, the “Plant response rating, Soybean” value (soybean; Preemergence, Rate 125 g/ha) was 0, the “Soybean plant response rating” value (soybean; [2]) was 0 and the “Soybean plant response rating” value (soybean; [3]) was 0. For the same compound, the “Soybean plant response rating” value (soybean; [4]) was 2 and the “Soybean plant response rating” value (soybean; [5]) was 2.
